Each block holds one compound with its values, some of them ahead of it.
System: α7 integrin promoter
Test: muscle cell-based assay: α7βgal+/− myoblasts/myotubes, LacZ reporter, β-galactosidase cleavage of FDG
Design: species or system mouse; Results in α7+/− β-galactosidase assay: scale not given here
Settings: for Results in a α7+/− β-galactosidase assay, Myotubes, 0.5 uM: compound at 0.5 uM; for Results in a α7+/− β-galactosidase assay, Myotubes, 1 uM: compound at 1 uM; for Results in a α7+/− β-galactosidase assay, Myotubes, 5 uM: compound at 5 uM; for Results in a α7+/− β-galactosidase assay, Myotubes, 10 uM: compound at 10 uM; for Results in a α7+/− β-galactosidase assay, Myotubes, 20 uM: compound at 20 uM; for Results in a α7+/− β-galactosidase assay, Myotubes, 40 uM: compound at 40 uM; for AC50 / Emax / EC50: Mus musculus; for AC50: log of AC50, given with negative sign, unit of AC50 not given, read-out: Fit Log AC50 (converted); for Emax: read-out: Max Response [%]; for Fit Curve Class: key not given; for EC50: given as log AC50 (negative values), read-out: Fit LogAC50 (converted); for Results in α7+/− β-galactosidase assay / Result in α7+/− β-galactosidase assay: Myoblasts
How it was run: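 Primary α7βgal+/− mouse myoblasts (LacZ knocked into α7 integrin exon 1, promoter retained), differentiated; promoter activity read as β-galactosidase conversion of non-fluorescent FDG to fluorescein. Hits followed by dose-response, western analysis and myostatin counterscreen.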

[1] = Table 12, fitted activity at zero concentration
[2] = Table 12 Compound data, concentration-response curve fit
[3] = curve fit, activity at zero concentration

Compound: O=C1CCC(C(=O)N2CCSCC2)CN1Cc1ccc(Cl)cc1 (centres unmarked) [drawing 489]
Results in a α7+/− β-galactosidase assay, Myotubes, 0.5 uM: 0.02632
Results in a α7+/− β-galactosidase assay, Myotubes, 1 uM: 0.1369
Results in a α7+/− β-galactosidase assay, Myotubes, 5 uM: 0.02663
Results in a α7+/− β-galactosidase assay, Myotubes, 10 uM: 0.3226
Results in a α7+/− β-galactosidase assay, Myotubes, 20 uM: 0.2089
Results in a α7+/− β-galactosidase assay, Myotubes, 40 uM: 0.5544

Compound: CC1CC(C)(C)N=C(S)N1CC(=O)N(C)Cc1ccccc1 (centres unmarked) [drawing 385]
Results in a α7+/− β-galactosidase assay, Myotubes, 0.5 uM: 0.02464
Results in a α7+/− β-galactosidase assay, Myotubes, 1 uM: −0.02121
Results in a α7+/− β-galactosidase assay, Myotubes, 5 uM: −0.03109
Results in a α7+/− β-galactosidase assay, Myotubes, 10 uM: 0.2144
Results in a α7+/− β-galactosidase assay, Myotubes, 20 uM: −0.02703
Results in a α7+/− β-galactosidase assay, Myotubes, 40 uM: 0.0594

Compound: O=c1oc2c(-c3cccc(F)c3)cc(O)cc2s1 [Compound 23]
AC50 (Table 12): 3.98 µM
Emax: 98.9%
Fit HillSlope (Table 12, curve fit): 2.9023
Fit Zero Activity [%] [1]: 13.3122%
Fit Curve Class (Table 12): 1.1
Score [2]: 84

EC50: 10 µM
Compound: CSc1ncccc1C(=O)OCC(=O)c1cc(C)n(C)c1C [Compound 134]
Score (Table 12 compound data): 42
Fit Curve Class (curve class number): 2.1
Fit HillSlope (curve fit): 4.4495
Fit Zero Activity [%] [3]: −22.5632%

Compound: CCOc1ccc2ccccc2c1C1NC(=O)N(C)C(C)=C1C(=O)OCCOC (centres unmarked) [Compound 76]
AC50 (Table 12): 6.31 µM
Fit HillSlope (Table 12, curve fit): 1.3443
Fit Zero Activity [%] [1]: −8.518%
Fit Curve Class (Table 12): 2.1
Score [2]: 44

Compound: CCOn1c(=O)c(-c2ccccc2)[n+]([O-])c2ccccc21 [drawing 540]
Results in α7+/− β-galactosidase assay (0.5 uM): 0.2811
Results in α7+/− β-galactosidase assay (1 uM): 0.2862
Results in α7+/− β-galactosidase assay (5 uM): 0.8432
Results in α7+/− β-galactosidase assay (10 uM): −0.07816
Results in α7+/− β-galactosidase assay (20 uM): 0.1113
Results in α7+/− β-galactosidase assay (40 uM): 0.0836

Compound: CCC(CC)C(=O)Nc1c(C(=O)N2CCN(c3ccccc3)CC2)oc2ccccc12 [Compound 73]
AC50 (Table 12): 12.6 µM
Fit HillSlope (Table 12, curve fit): 4.095
Fit Zero Activity [%] [1]: 16.3113%
Fit Curve Class (Table 12): 2.1
Score [2]: 44

Compound: CCOC(=O)c1nnn(-c2nonc2OC)c1-c1ccccc1 [drawing 344]
Results in a α7+/− β-galactosidase assay, Myotubes, 0.5 uM: 0.0549
Results in a α7+/− β-galactosidase assay, Myotubes, 1 uM: 0.07612
Results in a α7+/− β-galactosidase assay, Myotubes, 5 uM: 0.1364
Results in a α7+/− β-galactosidase assay, Myotubes, 10 uM: 0.03578
Results in a α7+/− β-galactosidase assay, Myotubes, 20 uM: 0.0782
Results in a α7+/− β-galactosidase assay, Myotubes, 40 uM: −0.03173

Compound: O=C(O)c1cc(/N=C/c2c(O)oc3ccccc3c2=O)ccc1O [Compound 48]
AC50 (Table 12): 7.08 µM
Emax: 165%
Fit HillSlope (Table 12, curve fit): 1.7137
Fit Zero Activity [%] [1]: −35.4511%
Fit Curve Class (Table 12): 2.1
Score [2]: 46

EC50: 11.2 µM
Compound: CNC(=O)/C(=C\c1cccc(Oc2ccccc2)c1)NC(=O)c1ccccc1 [Compound 211]
Score (Table 12 compound data): 42
Fit Curve Class (curve class number): 2.1
Fit HillSlope (curve fit): 1.1341
Fit Zero Activity [%] [3]: −0.265%

EC50: 11.2 µM
Compound: COc1ccccc1C(=O)NCC(=O)/N=N/c1c(O)n(C(C)C)c2ccccc12 [Compound 139]
Score (Table 12 compound data): 42
Fit Curve Class (curve class number): 2.1
Fit HillSlope (curve fit): 4.5045
Fit Zero Activity [%] [3]: 14.712%

Compound: COc1ccc(C(=O)/C=C2\C(=O)Nc3ccccc32)cc1 [drawing 361]
Results in a α7+/− β-galactosidase assay, Myotubes, 0.5 uM: 0.1208
Results in a α7+/− β-galactosidase assay, Myotubes, 1 uM: 0.06821
Results in a α7+/− β-galactosidase assay, Myotubes, 5 uM: −0.04505
Results in a α7+/− β-galactosidase assay, Myotubes, 10 uM: −0.256
Results in a α7+/− β-galactosidase assay, Myotubes, 20 uM: −0.3122
Results in a α7+/− β-galactosidase assay, Myotubes, 40 uM: −0.5124

EC50: 10 µM
Compound: COc1ccccc1OCC(=O)N/N=C1/C=C(C)CC1 [Compound 185]
Score (Table 12 compound data): 42
Fit Curve Class (curve class number): 2.1
Fit HillSlope (curve fit): 4.9549
Fit Zero Activity [%] [3]: −23.4705%

Compound: CCOc1cc2c3c(c1)C(C)=CC(C)(C)N3C(=O)C2=O [drawing 442]
Results in a α7+/− β-galactosidase assay, Myotubes, 0.5 uM: 0.1339
Results in a α7+/− β-galactosidase assay, Myotubes, 1 uM: 0.05498
Results in a α7+/− β-galactosidase assay, Myotubes, 5 uM: −0.2641
Results in a α7+/− β-galactosidase assay, Myotubes, 10 uM: −0.2882
Results in a α7+/− β-galactosidase assay, Myotubes, 20 uM: −0.3067
Results in a α7+/− β-galactosidase assay, Myotubes, 40 uM: −0.3705

Compound: CC(OC(=O)c1cc(-c2cccnc2)nc2ccccc12)C(=O)Nc1ccc2ccccc2c1 (centres unmarked) [Compound 1]
Activity at 0.307 μM [%] ** (0.307 μM): 0%
AC50 (Table 12): 1.12 µM
Emax: 191%
Fit HillSlope (Table 12, curve fit): 3.132
Fit Zero Activity [%] [1]: −2.9752%
Fit Curve Class (Table 12): 1.1
Score [2]: 94

Compound: COc1ccc(NC(=O)C2(N(C(=O)Cn3nnnc3N)c3ccc(OC)cc3)CCCCC2)cc1 [drawing 532]
Results in α7+/− β-galactosidase assay (0.5 uM): 0.2391
Results in α7+/− β-galactosidase assay (1 uM): 0.1433
Results in α7+/− β-galactosidase assay (5 uM): 0.4897
Results in α7+/− β-galactosidase assay (10 uM): −0.1284
Results in α7+/− β-galactosidase assay (20 uM): −0.274
Results in α7+/− β-galactosidase assay (40 uM): −0.3931

Compound: CCOc1ccc(Br)cc1S(=O)(=O)Nc1ccc(C(=O)Nc2ccccc2OC)cc1 [drawing 659]
Results in α7+/− β-galactosidase assay (0.5 uM): −0.08436
Results in α7+/− β-galactosidase assay (1 uM): 0.06885
Results in α7+/− β-galactosidase assay (5 uM): 0.1299
Results in α7+/− β-galactosidase assay (10 uM): −0.03674
Results in α7+/− β-galactosidase assay (20 uM): −0.08958
Results in α7+/− β-galactosidase assay (40 uM): −0.05546

Compound: CNC(=O)CSc1nnc(-c2ccc3c(c2)OCO3)n1C [drawing 536]
Results in α7+/− β-galactosidase assay (0.5 uM): 0.1583
Results in α7+/− β-galactosidase assay (1 uM): 0.04195
Results in α7+/− β-galactosidase assay (5 uM): 0.03203
Results in α7+/− β-galactosidase assay (10 uM): 0.03846
Results in α7+/− β-galactosidase assay (20 uM): −0.04001
Results in α7+/− β-galactosidase assay (40 uM): −0.01341

Compound: CCc1nc(/C=C2\C(=O)Nc3ccccc32)c[nH]1 [drawing 394]
Results in a α7+/− β-galactosidase assay, Myotubes, 0.5 uM: 0.2902
Results in a α7+/− β-galactosidase assay, Myotubes, 1 uM: 0.2582
Results in a α7+/− β-galactosidase assay, Myotubes, 5 uM: −0.08702
Results in a α7+/− β-galactosidase assay, Myotubes, 10 uM: −0.09062
Results in a α7+/− β-galactosidase assay, Myotubes, 20 uM: −0.0001
Results in a α7+/− β-galactosidase assay, Myotubes, 40 uM: −0.1577

EC50: 8.91 µM
Compound: C/C(=N\NC(=O)c1cc(C)oc1C)c1ccc2ccccc2c1 [Compound 149]
Score (Table 12 compound data): 42
Fit Curve Class (curve class number): 2.2
Fit HillSlope (curve fit): 1.111
Fit Zero Activity [%] [3]: −1.9678%

Compound: Cc1ccc(NC(=O)NCc2nc3ccccc3n2C)cc1 [Compound 77]
AC50 (Table 12): 4.47 µM
Fit HillSlope (Table 12, curve fit): 1.8617
Fit Zero Activity [%] [1]: −34.2328%
Fit Curve Class (Table 12): 2.1
Score [2]: 44

Compound: Cc1[nH]c(/C=C2\C(=O)Nc3ccc([S+](=O)([O-])Cc4c(Cl)cccc4Cl)cc32)c(C)c1C(=O)C1CCCN1CN1CCCC1 (centres unmarked) [drawing 725]
Result in α7+/− β-galactosidase assay (0.5 uM): 0.05199
Result in α7+/− β-galactosidase assay (1 uM): 0.07607
Result in α7+/− β-galactosidase assay (5 uM): −0.1295
Result in α7+/− β-galactosidase assay (10 uM): −0.4121
Result in α7+/− β-galactosidase assay (20 uM): −0.9816
Result in α7+/− β-galactosidase assay (40 uM): −0.9806

Compound: O=C(N/N=C/c1c[nH]c2ccccc12)c1cc(Cl)ccc1O [drawing 617]
Results in α7+/− β-galactosidase assay (0.5 uM): −0.1174
Results in α7+/− β-galactosidase assay (1 uM): −0.2374
Results in α7+/− β-galactosidase assay (5 uM): 0.2235
Results in α7+/− β-galactosidase assay (10 uM): −0.05174
Results in α7+/− β-galactosidase assay (20 uM): −0.06378
Results in α7+/− β-galactosidase assay (40 uM): −0.0655
